Test [1] concerns the target T1, E. coli homoserine transsuccinylase (MetA, SEQ ID No. 2) variant pKP446, Tyr294 replaced with Cys (Escherichia coli, UniProt P07623, Y294C).
T1 construct: made in house; host or cells: E. coli W3110 (ATCC 27325), cell extract
The test can be described thus: biochemical. Conditions: pH 7.6, read-out: Activity (%) in the presence of 1 mM L-methionine. From the text: (§1) Any method which enables the activity of the enzyme to be determined in the presence of L-methionine or SAM can be used for determining the sensitivity of the homoserine transsuccinylase to L-methionine and/or SAM. For example, the homoserine transsuccinylase activity can be determined by following the method described by Kredich and Tomkins for determining the activity of serine acetyltransferases (Kredich N. M. and Tomkins G. M., J. Biol. Chem. 241, 4955-4965 (1966)). The enzyme activity is measured in an assay sample which contains homoserine and succinyl-CoA. The reaction is started by adding enzyme and monitored in a spectrophotometer by way of the decrease in the extinction at 232 nm which results from cleavage of the thioester bond in the succinyl-coenzyme A. The described test is suitable for determining the sensitivity of the homoserine transsuccinylases to methionine. The inhibition of homoserine transsuccinylase activity is tested in the presence of different concentrations of L-methionine in the reaction mixture.
(§2) The activity, and the influence of L-methionine on the activity, of the different homoserine transsuccinylases were determined by means of an enzyme test using cell extracts in which the respective proteins had been produced. For this, the corresponding plasmids, encoding altered homoserine transsuccinylases, were introduced, by transformation, into the E. coli strain W3110 (ATCC 27325) using methods known to the skilled person. The transformation mixture was spread on LB-tetracycline agar plates (10 g of tryptone/l, 5 g of yeast extract/l, 5 g of NaCl/l, 15 g of agar/l and 15 mg of tetracycline/l) and incubated at 37° C. overnight. The resulting transformants were grown in SM1 medium (for 1 l of medium: CaCl2×2H2O, 0.0147 g, MgSO4×7H2O, 0.3 g, Na2MoO4×2H2O, 0.15 mg, H3BO3, 2.5 mg, CoCl2×6H2O, 0.7 mg, CuSO4×5H2O, 0.25 mg, MnCl2×4H2O, 1.6 mg, ZnSO4×7H2O, 0.3 mg, KH2PO4, 3.0 g, K2HPO4, 12.0 g, (NH4)2SO4, 5 g, NaCl, 0.6 g, FeSO4×7H2O, 0.002 g, Na3-citrate×2H2O, 1 g, glucose, 5 g, tryptone, 1 g, yeast extract, 0.5 g), centrifuged down at an absorption of approx. 0.8 at 600 nm, washed in 50 mM Tris pH 7.5, and centrifuged down once again. The cells were resuspended in 50 mM Tris/Cl, pH 7.5, 2 mM dithiothreitol, 0.5 mM phenylmethylsulfonyl fluoride and disrupted in a French press. The supernatant from a further centrifugation was used as the enzyme extract in the test. The enzyme activity was determined, in a mixture containing 50 mM Tris/Cl, pH 7.6, 1 mM homoserine and 0.1 mM succinyl-CoA, by photometrically quantifying, by means of the decrease in the extinction at 232 nm, the coenzyme A formed in the reaction, following the method described by Kredich and Tomkins for determining the activity of serine acetyltransferases (Kredich N. M. and Tomkins G. M., J. Biol. Chem. 241, 4955-4965 (1966)). The effect of added L-methionine on the activity was determined and the inhibitability was quantified as a Ki value. The Ki which is determined is the concentration of L-methionine at which the activity of the homoserine transsuccinylase is only 50% of its activity in the absence of L-methionine.

Test [2] addresses T2, E. coli homoserine transsuccinylase (MetA, SEQ ID No. 2) variant pSLmetA*0, amino acid 294 (Tyr) deleted (Escherichia coli, UniProt P07623, DEL294-294).
T2 construct: made in house; host or cells: E. coli W3110 (ATCC 27325), cell extract
The test is described as follows: biochemical. Conditions: pH 7.6, read-out: Activity (%) in the presence of 1 mM L-methionine.
Excerpt: as §1, §2

Test [3] has as its target T3, E. coli homoserine transsuccinylase (MetA, SEQ ID No. 2) variant pSLmetA*A, Tyr294 replaced with Ala (Escherichia coli, UniProt P07623, Y294A).
T3 construct: made in house; host or cells: E. coli W3110 (ATCC 27325), cell extract
The test can be described thus: biochemical. Conditions: pH 7.6, read-out: Activity (%) in the presence of 1 mM L-methionine.
Excerpt: as §1, §2

Test [4] concerns the target T4, E. coli homoserine transsuccinylase (MetA, SEQ ID No. 2) variant pSLmetA*K, Tyr294 replaced with Lys (Escherichia coli, UniProt P07623, Y294K).
T4 construct: made in house; host or cells: E. coli W3110 (ATCC 27325), cell extract
The test can be described thus: biochemical. Conditions: pH 7.6, read-out: Activity (%) in the presence of 1 mM L-methionine.
Excerpt: as §1, §2

The target of test [5] is T5, E. coli homoserine transsuccinylase (MetA, SEQ ID No. 2) variant pSLmetA*L, Tyr294 replaced with Leu (Escherichia coli, UniProt P07623, Y294L).
T5 construct: made in house; host or cells: E. coli W3110 (ATCC 27325), cell extract
T5 sequence (P07623 2-309 Y294L): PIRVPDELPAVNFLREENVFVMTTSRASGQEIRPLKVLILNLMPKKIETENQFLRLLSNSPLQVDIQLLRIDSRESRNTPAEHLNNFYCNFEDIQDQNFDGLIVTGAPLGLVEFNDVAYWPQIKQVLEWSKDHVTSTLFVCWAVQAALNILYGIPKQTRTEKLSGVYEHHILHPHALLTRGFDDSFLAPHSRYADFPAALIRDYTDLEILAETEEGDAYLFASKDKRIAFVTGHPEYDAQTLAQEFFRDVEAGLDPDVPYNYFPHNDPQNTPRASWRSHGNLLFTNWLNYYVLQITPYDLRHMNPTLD
The test is described as follows: biochemical. Conditions: pH 7.6, read-out: Activity (%) in the presence of 1 mM L-methionine.
Excerpt: as §1, §2

The target of test [6] is T6, E. coli homoserine transsuccinylase (MetA, SEQ ID No. 2) variant pSLmetA*P, Tyr294 replaced with Pro (Escherichia coli, UniProt P07623, Y294P).
T6 construct: made in house; host or cells: E. coli W3110 (ATCC 27325), cell extract
T6 sequence (P07623 2-309 Y294P): as the sequence (P07623 2-309 Y294L) above, with L293P counted along it
The test is described as follows: biochemical. Conditions: pH 7.6, read-out: Activity (%) in the presence of 1 mM L-methionine.
Excerpt: as §1, §2

Test [7] concerns the target T7, E. coli homoserine transsuccinylase (MetA, SEQ ID No. 2) variant pSLmetA*Q, Tyr294 replaced with Gln (Escherichia coli, UniProt P07623, Y294Q).
T7 construct: made in house; host or cells: E. coli W3110 (ATCC 27325), cell extract
The test is described as follows: biochemical. Conditions: pH 7.6, read-out: Activity (%) in the presence of 1 mM L-methionine.
Excerpt: as §1, §2

For test [8], the target named is T8, E. coli homoserine transsuccinylase (MetA, SEQ ID No. 2) variant pSLmetAN, Asp101 replaced with Asn (Escherichia coli, UniProt P07623, D101N).
T8 construct: made in house; host or cells: E. coli W3110 (ATCC 27325), cell extract
T8 sequence (P07623 2-309 D101N): as the sequence (P07623 2-309 Y294L) above, with D100N, L293Y counted along it
The test can be described thus: biochemical. Conditions: pH 7.6, read-out: Activity (%) in the presence of 1 mM L-methionine.
Excerpt: as §1, §2

Test [9] deals with T1, E. coli homoserine transsuccinylase (MetA, SEQ ID No. 2) variant pKP446, Tyr294 replaced with Cys. The test can be described thus: Inhibition of homoserine transsuccinylase activity by SAM (cell extract, DTNB assay at 412 nm). It counts as biochemical. Conditions: pH 7.5, read-out: Activity (%) in the presence of 1 mM SAM. The protocol: (§3) In order to determine the sensitivity of the activity of the different homoserine transsuccinylases to SAM, it is possible, for example, to carry out an activity test as described in Lee L. W. et al., J. Biol. Chem. 241, 5479-5480 (1966). In this method, the enzyme extract is incubated with homoserine and succinyl-CoA. After various times, a part of the test assay sample is stopped by adding it to a mixture of ethanol, water, and 5,5′-dithiobis(2-nitrobenzoic acid). The absorption is determined photometrically at 412 nm. The described test is suitable, for example, for determining the sensitivity of the homoserine transsuccinylases to SAM.
(§4) The influence of SAM on the activities of the different homoserine transsuccinylases was determined by quantifying the activity in the presence of different concentrations of SAM (Cl salt, Sigma). The cell extracts were grown and prepared as described in Example 3. The activity test was carried out as described in Lee L. W. et al., J. Biol. Chem. 241, 5479-5480 (1966), with the enzyme extract being incubated with 50 mM potassium phosphate buffer, pH 7.5, 3 mM homoserine and 0.3 mM succinyl-CoA. After various times, 100 μl volumes of test mixture were stopped by adding them in each case to a mixture of 400 μl of ethanol, 400 μl of water and 100 μl of 10 mM 5,5′-dithiobis(2-nitrobenzoic acid). After the resulting mixture had been incubated at room temperature for 5 minutes, the absorption was determined photometrically at 412 nm. After the protein concentration had been determined, the enzyme activity was calculated using the extinction coefficient. The Ki was determined as a measure of the ability of SAM to inhibit the activity.

In test [10] the target is T2, E. coli homoserine transsuccinylase (MetA, SEQ ID No. 2) variant pSLmetA*0, amino acid 294 (Tyr) deleted. Described as above. It counts as biochemical. Conditions: pH 7.5, read-out: Activity (%) in the presence of 1 mM SAM. As to the method: as §3, §4
Test [11] addresses T3, E. coli homoserine transsuccinylase (MetA, SEQ ID No. 2) variant pSLmetA*A, Tyr294 replaced with Ala. The description is as above. Format: biochemical. Conditions: pH 7.5, read-out: Activity (%) in the presence of 1 mM SAM. The protocol:
as §3, §4

The target in test [12] is T4, E. coli homoserine transsuccinylase (MetA, SEQ ID No. 2) variant pSLmetA*K, Tyr294 replaced with Lys. The test is described as above. Format: biochemical. Conditions: pH 7.5, read-out: Activity (%) in the presence of 1 mM SAM. As to the method: as §3, §4
For test [13], the target named is T5, E. coli homoserine transsuccinylase (MetA, SEQ ID No. 2) variant pSLmetA*L, Tyr294 replaced with Leu. The description is as above. Format: biochemical. Conditions: pH 7.5, read-out: Activity (%) in the presence of 1 mM SAM. As to the method: as §3, §4
Test [14] has as its target T6, E. coli homoserine transsuccinylase (MetA, SEQ ID No. 2) variant pSLmetA*P, Tyr294 replaced with Pro. Described as above. Format: biochemical. Conditions: pH 7.5, read-out: Activity (%) in the presence of 1 mM SAM. The protocol:
as §3, §4

For test [15], the target named is T7, E. coli homoserine transsuccinylase (MetA, SEQ ID No. 2) variant pSLmetA*Q, Tyr294 replaced with Gln. Described as above. Format: biochemical. Conditions: pH 7.5, read-out: Activity (%) in the presence of 1 mM SAM. The protocol:
as §3, §4

Test [16] deals with T8, E. coli homoserine transsuccinylase (MetA, SEQ ID No. 2) variant pSLmetAN, Asp101 replaced with Asn. The test is described as above. Conditions: pH 7.5, read-out: Activity (%) in the presence of 1 mM SAM. It counts as biochemical. As to the method: as §3, §4

T7 sequence (P07623 2-309 Y294Q): as the sequence (P07623 2-309 Y294L) above, with L293Q counted along it
T1 sequence (P07623 2-309 Y294C): as the sequence (P07623 2-309 Y294L) above, with L293C counted along it
T2 sequence (P07623 other isoform, or with tags, fused parts or gaps DEL294-294): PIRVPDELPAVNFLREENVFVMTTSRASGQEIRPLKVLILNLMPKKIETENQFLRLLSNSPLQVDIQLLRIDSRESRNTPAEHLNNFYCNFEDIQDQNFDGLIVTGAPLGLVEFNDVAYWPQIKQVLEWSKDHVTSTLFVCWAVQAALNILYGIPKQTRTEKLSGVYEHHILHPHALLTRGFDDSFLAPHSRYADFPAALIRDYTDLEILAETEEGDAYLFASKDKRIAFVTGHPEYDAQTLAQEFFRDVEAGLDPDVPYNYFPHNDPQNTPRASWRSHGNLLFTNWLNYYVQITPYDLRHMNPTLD
T4 sequence (P07623 2-309 Y294K): as the sequence (P07623 2-309 Y294L) above, with L293K counted along it
T3 sequence (P07623 2-309 Y294A): as the sequence (P07623 2-309 Y294L) above, with L293A counted along it

With `CSCC[C@H](N)C(=O)O` [L-methionine], the activity at 1000 µM in [1] amounted to 96%; in test [2] it was 98%; in [3] it was 94%; in test [4], 92%; in test [5], 89%; in test [6] it was 91%. Moreover, the activity at 1000 µM was determined as 95% in [7] and 86% in test [8].

`C[S+](CC[C@H](N)C(=O)[O-])C[C@H]1O[C@@H](n2cnc3c(N)ncnc32)[C@H](O)[C@@H]1O` (stereo partly shown) [SAM, S-Adenosylmethionine]: the activity at 1000 µM in [9] is 92%; in [10] it was 96%; in test [11] it was 95%; in test [12], 90%; in test [13], 80%; in test [14] it was 98%. In addition, the activity at 1000 µM in [15] stood at 87%; in test [16], 91%.

The values above are taken from patent US7371551B1, “Feedback-resistant homoserine transsuccinylases” (priority 2002, dated 2008).
